# Test results: patent publication US6936585B2, “Corticotropin releasing factor 2 receptor agonists” (priority 2002, dated 2005)
# Like-named read-outs stand apart in the source and are kept apart here. Ends that are not written are not given here. Peptide text beside a SMILES is read from it.
# Tests used:
# [1] = target: T1, CRF1R (Homo sapiens, UniProt P34998); experiment: CRF1R agonist activation (EC50 / Emax), called comparative CRF binding; assay type: cell-based
# T1 sequence (P34998 24-415): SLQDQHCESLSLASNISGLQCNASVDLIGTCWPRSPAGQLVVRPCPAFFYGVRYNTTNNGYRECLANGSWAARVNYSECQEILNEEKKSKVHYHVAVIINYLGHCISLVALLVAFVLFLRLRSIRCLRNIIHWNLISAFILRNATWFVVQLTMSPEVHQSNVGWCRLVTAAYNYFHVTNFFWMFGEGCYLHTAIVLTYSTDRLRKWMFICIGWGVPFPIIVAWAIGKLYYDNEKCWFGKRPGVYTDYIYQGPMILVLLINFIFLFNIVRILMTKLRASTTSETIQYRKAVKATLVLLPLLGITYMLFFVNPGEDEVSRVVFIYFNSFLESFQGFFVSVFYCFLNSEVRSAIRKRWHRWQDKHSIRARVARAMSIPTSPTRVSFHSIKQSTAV
# Outline: (§1)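 Peptides are tested on cells bearing CRF1R or CRF2R, full length or as ligand-binding-domain constructs coupled to reporters or G proteins. Activation is scored by cAMP rise, measured in lysates or by CRE-reporter output, against vehicle control.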
# [2] = target: T2, CRF2R (Homo sapiens, UniProt Q13324); experiment: CRF2R agonist activation (EC50 / Emax), called comparative CRF binding; assay type: cell-based
# T2 sequence (Q13324 1-411): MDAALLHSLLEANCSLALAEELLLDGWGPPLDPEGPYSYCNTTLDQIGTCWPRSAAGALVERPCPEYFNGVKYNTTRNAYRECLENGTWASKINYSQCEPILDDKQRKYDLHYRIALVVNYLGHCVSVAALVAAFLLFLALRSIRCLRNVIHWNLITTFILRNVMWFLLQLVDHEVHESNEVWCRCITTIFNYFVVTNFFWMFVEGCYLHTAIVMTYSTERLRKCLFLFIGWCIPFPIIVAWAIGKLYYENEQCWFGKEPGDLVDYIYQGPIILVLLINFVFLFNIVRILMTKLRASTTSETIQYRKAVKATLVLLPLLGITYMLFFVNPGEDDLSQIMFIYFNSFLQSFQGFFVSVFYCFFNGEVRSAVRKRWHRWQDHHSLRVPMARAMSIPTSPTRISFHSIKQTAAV
# Outline: as §1
molecule,measurement,setting,value
"CC[C@H](C)[C@H](NC(=O)[C@H](CO)NC(=O)[C@H](CC(C)C)NC(=O)[C@H](CO)NC(=O)[C@@H]1CCCN1C(=O)[C@H](CC(N)=O)NC(=O)[C@@H](N)CC(=O)O)C(=O)N[C@@H](CC(=O)O)C(=O)N[C@@H](CC(C)C)C(=O)N[C@H](C(=O)N[C@@H](Cc1ccccc1)C(=O)N[C@@H](Cc1c[nH]cn1)C(=O)N[C@@H](CC(C)C)C(=O)N[C@@H](CC(C)C)C(=O)N[C@@H](CCCNC(=N)N)C(=O)N[C@H](C(=O)N[C@@H](CC(C)C)C(=O)N[C@@H](CC(C)C)C(=O)N[C@@H](CCC(=O)O)C(=O)N[C@@H](CC(C)C)C(=O)N[C@@H](C)C(=O)N[C@@H](CCCNC(=N)N)C(=O)N[C@H](C(=O)N[C@@H](CCC(N)=O)C(=O)N[C@@H](CO)C(=O)N[C@@H](CCC(N)=O)C(=O)N[C@@H](CCCNC(=N)N)C(=O)N[C@@H](CCC(=O)O)C(=O)N[C@@H](CCCNC(=N)N)C(=O)N[C@@H](C)C(=O)N[C@@H](CCC(=O)O)C(=O)N[C@@H](CCC(N)=O)C(=O)N[C@@H](CC(N)=O)C(=O)N[C@@H](CCCNC(=N)N)C(=O)N[C@H](C(=O)N[C@H](C(=O)N[C@@H](Cc1ccccc1)C(=O)N[C@@H](CC(=O)O)C(=O)N[C@@H](CO)C(=O)N[C@H](C(N)=O)C(C)C)[C@@H](C)CC)[C@@H](C)CC)[C@@H](C)O)[C@@H](C)O)[C@@H](C)O [hUcnI, human urocortin I, reference compound] (H-DNPSLSIDLTFHLLRTLLELARTQSQRERAEQNRIIFDSV-NH2)",Emax,"[1]; read-out: CRF1R (Emax %), Emax",100%
same,Emax,"[2]; read-out: CRF2R (Emax %), Emax",100%
"CC[C@H](C)[C@H](NC(=O)[C@H](CCC(N)=O)NC(=O)[C@H](C)NC(=O)[C@H](CCSC)NC(=O)[C@H](CC(C)C)NC(=O)[C@H](Cc1c[nH]cn1)NC(=O)[C@H](C)NC(=O)[C@H](CC(N)=O)NC(=O)[C@H](C)NC(=O)[C@H](C)NC(=O)[C@H](C)NC(=O)[C@H](CCC(N)=O)NC(=O)[C@H](C)NC(=O)[C@H](CCCNC(=N)N)NC(=O)[C@H](CC(C)C)NC(=O)[C@H](CC(N)=O)NC(=O)[C@H](CCCCN)NC(=O)[C@H](C)NC(=O)[C@H](CCCCN)NC(=O)[C@H](C)NC(=O)[C@@H](NC(=O)[C@H](CC(N)=O)NC(=O)[C@H](Cc1ccccc1)NC(=O)[C@H](CC(C)C)NC(=O)[C@H](CC(C)C)NC(=O)[C@H](CC(N)=O)NC(=O)[C@H](CCSC)NC(=O)[C@@H](NC(=O)[C@H](CC(N)=O)NC(=O)[C@@H](NC(=O)[C@@H]1CCCN1C(=O)[C@@H](NC(=O)[C@H](CC(=O)O)NC(=O)[C@H](CC(C)C)NC(=O)[C@H](CO)NC(=O)[C@H](CC(C)C)NC(=O)[C@@H](NC(=O)[C@H](Cc1ccccc1)NC(=O)[C@H](CCCCN)NC(=O)[C@@H](N)[C@@H](C)O)[C@@H](C)O)C(C)C)[C@@H](C)O)[C@@H](C)CC)[C@@H](C)CC)C(N)=O [hUroIII, human urocortin III, reference compound] (H-TKFTLSLDVPTNIMNLLFNIAKAKNLRAQAAANAHLMAQI-NH2)",Emax,"[1]; Emax, read-out: CRF1R (Emax %)",10.2%
same,Emax,"[2]; Emax, read-out: CRF2R (Emax %)",60%
"CC[C@H](C)[C@H](NC(=O)[C@H](CC(=O)O)NC(=O)[C@H](CC(C)C)NC(=O)[C@H](CC(C)C)NC(=O)[C@H](CCCCN)NC(=O)[C@H](CCCNC(=N)N)NC(=O)[C@H](CC(N)=O)NC(=O)[C@H](CO)NC(=O)[C@H](Cc1c[nH]cn1)NC(=O)[C@H](C)NC(=O)[C@H](CCC(N)=O)NC(=O)[C@H](CCC(N)=O)NC(=O)[C@H](C)NC(=O)[C@H](CC(C)C)NC(=O)[C@H](CCC(N)=O)NC(=O)[C@H](CC(=O)O)NC(=O)[C@H](C)NC(=O)[C@H](CCCCN)NC(=O)[C@@H](NC(=O)[C@H](CCSC)NC(=O)[C@H](CCC(=O)O)NC(=O)[C@H](CC(C)C)NC(=O)[C@@H](NC(=O)[C@H](CCC(=O)O)NC(=O)[C@H](CCCNC(=N)N)NC(=O)[C@H](CC(C)C)NC(=O)[C@H](CC(C)C)NC(=O)[C@H](Cc1c[nH]cn1)NC(=O)[C@H](Cc1ccccc1)NC(=O)[C@@H](NC(=O)[C@H](CC(C)C)NC(=O)[C@H](CC(=O)O)NC(=O)[C@H](CC(C)C)NC(=O)[C@H](CO)NC(=O)[C@@H](NC(=O)[C@@H]1CCCN1C(=O)[C@@H]1CCCN1C(=O)[C@H](CCC(=O)O)NC(=O)[C@H](CCC(N)=O)NC(=O)[C@@H](N)CO)[C@@H](C)CC)[C@@H](C)O)C(C)C)[C@@H](C)O)C(=O)N[C@@H](C)C(N)=O [oCRF, sheep corticotropin releasing factor, reference compound]",EC50,[1],0.0274 µM
same,Emax,"[1]; Emax, read-out: CRF1R (Emax %)",98%
same,EC50,[2],> 0.1 µM
same,Emax,"[2]; Emax, read-out: CRF2R (Emax %)",33%
HHHHHHIVLSLDVPIGLLQILLEQARARAAREQATTNARILARN-NH2 [compound 296],Emax,[1]; read-out: CRF1R Emax,4%
same,Emax,[2]; read-out: CRF2R Emax,65%
NDDPPISIDLPFFLLRNMIEMARIENEREQAGLNAKYLAEV-NH2 [compound 264],Emax,[1]; read-out: CRF1R Emax,100%
same,Emax,[2]; read-out: CRF2R Emax,66.3%
NDDPPISIDLPFHLLRNMIEMARIENEREQAGLNAKYLAEV-NH2 [compound 262],Emax,[1]; read-out: CRF1R Emax,100%
same,Emax,[2]; read-out: CRF2R Emax,92.2%
NDDPPISIDLPFLLLRNMIEMARIENEREQAGLNAKYLAEV-NH2 [compound 260],EC50,[1]; read-out: CRF1R EC50,0.834 µM
same,Emax,[1]; read-out: CRF1R Emax,89.7%
same,EC50,[2]; read-out: CRF2R EC50,≥ 0.1 µM
same,Emax,[2]; read-out: CRF2R Emax,89.3%
NDDPPISIDLPFQLLRNMIEMARIENEREQAGLNAKYLAEV-NH2 [compound 258],Emax,[1]; read-out: CRF1R Emax,23.6%
same,Emax,[2]; read-out: CRF2R Emax,49.3%
NDDPPISIDLPFYLLRNMIEMARIENEREQAGLNAKYLAEV-NH2 [compound 261],Emax,[1]; read-out: CRF1R Emax,100%
same,Emax,[2]; read-out: CRF2R Emax,95.3%
NDDPPISIDLPLFLLRNMIEMARIENEREQAGLNAKYLAEV-NH2 [compound 257],Emax,[1]; read-out: CRF1R Emax,83.5%
same,Emax,[2]; read-out: CRF2R Emax,72.6%
NDDPPISIDLPLHLLRNMIEMARIENEREQAGLNAKYLAEV-NH2 [compound 259],Emax,[1]; read-out: CRF1R Emax,83.6%
same,Emax,[2]; read-out: CRF2R Emax,65%
NDDPPISIDLPLILLRNMIEMARIENEREQAGLNAKYLAEV-NH2 [compound 269],Emax,[1]; read-out: CRF1R Emax,44.3%
same,Emax,[2]; read-out: CRF2R Emax,77.3%
NDDPPISIDLPLLLLRNMIEMARIENEREQAGLNAKYLAEV-NH2 [compound 268],Emax,[1]; read-out: CRF1R Emax,14.2%
same,Emax,[2]; read-out: CRF2R Emax,59%
NDDPPISIDLPLQLLRNMIEMARIENEREQAGLNAKYLAEV-NH2 [compound 270],Emax,[1]; read-out: CRF1R Emax,7.85%
same,Emax,[2]; read-out: CRF2R Emax,19.3%
NDDPPISIDLPLYLLRNMIEMARIENEREQAGLNAKYLAEV-NH2 [compound 271],EC50,[1]; read-out: CRF1R EC50,0.815 µM
same,Emax,[1]; read-out: CRF1R Emax,80.7%
same,EC50,[2]; read-out: CRF2R EC50,0.0481 µM
same,Emax,[2]; read-out: CRF2R Emax,69%
NDDPPISIDLPQYLLRNMIEMARIENEREQAGLNAKYLAEV-NH2 [compound 265],Emax,[1]; read-out: CRF1R Emax,9.3%
same,Emax,[2]; read-out: CRF2R Emax,23.4%
NDDPPISIDLPTYLLRNMIEMARIENEREQAGLNAKYLAEV-NH2 [compound 266],Emax,[1]; read-out: CRF1R Emax,4.45%
same,Emax,[2]; read-out: CRF2R Emax,19.4%
NDDPPISIDLPYYLLRNMIEMARIENEREQAGLNAKYLAEV-NH2 [compound 267],Emax,[1]; read-out: CRF1R Emax,22.8%
same,Emax,[2]; read-out: CRF2R Emax,44.2%
SEEPPISLDLTFHLLREVLEMARAEQLAQQAHTNARILARV-NH2 [compound 161],Emax,[1]; read-out: CRF1R Emax,77%
same,Emax,[2]; read-out: CRF2R Emax,88%
SEEPPISLDVPIGLLQEVLEMARAEQLAQQAHSNRKLMEII-NH2 [compound 162],Emax,[1]; read-out: CRF1R Emax,11%
same,Emax,[2]; read-out: CRF2R Emax,7%
SQEIVLSLDVPIGLLREVLEMTKADQLAQQAHSNRKLLDIA-NH2 [compound 7],EC50,[1]; read-out: CRF1R EC50,≥ 0.1 µM
same,EC50,[2]; read-out: CRF2R EC50,≥ 0.1 µM
SQEIVLSLDVPIGLLREVLEMTKADQLAQQAHSNRKLLDIA-NH2 [compound 152],Emax,[1]; read-out: CRF1R Emax,4%
same,Emax,[2]; read-out: CRF2R Emax,19%
SQEPPISLDLPFELLREVLEMTKADQLAQQAHSNRKLLDIA-NH2 [compound 97],Emax,[1]; read-out: CRF1R Emax,4.25%
same,Emax,[2]; read-out: CRF2R Emax,7.6%
SQEPPISLDLPFGLLREVLEMTKADQLAQQAHSNRKLLDIA-NH2 [compound 103],Emax,[1]; read-out: CRF1R Emax,5.75%
same,Emax,[2]; read-out: CRF2R Emax,4.85%
SQEPPISLDLPFQLLREVLEMTKADQLAQQAHSNRKLLDIA-NH2 [compound 91],Emax,[1]; read-out: CRF1R Emax,4%
same,Emax,[2]; read-out: CRF2R Emax,7.1%
SQEPPISLDLPFYLLREVLEMTKADQLAQQAHSNRKLLDIA-NH2 [compound 96],Emax,[1]; read-out: CRF1R Emax,16.3%
same,Emax,[2]; read-out: CRF2R Emax,12.5%
SQEPPISLDLPIGLLREVLEMTKADQLAQQAHSNRKLLDIA-NH2 [compound 93],Emax,[1]; read-out: CRF1R Emax,5%
same,Emax,[2]; read-out: CRF2R Emax,6.4%
SQEPPISLDLPIHLLREVLEMTKADQLAQQAHSNRKLLDIA-NH2 [compound 94],Emax,[1]; read-out: CRF1R Emax,7.3%
same,Emax,[2]; read-out: CRF2R Emax,6.15%
